Assay results as given in ChEMBL document CHEMBL3217501, “Synthesis and biological evaluation of tetrazole containing compounds as possible anticancer agents” (Medchemcomm, 2011).
Activity calls are given as the source filed them. No cut-off for these calls is given here.

Legend:
DU-145 = assay: Cytotoxicity against human DU145 cells assessed as growth inhibition after 48 hrs by SRB assay; type: functional, cell-based; settings: DU-145, 48 h
HepG2 = assay: Cytotoxicity against human HepG2 cells assessed as growth inhibition after 48 hrs by SRB assay; type: functional, cell-based; settings: HepG2, 48 h
A549 = assay: Cytotoxicity against human A549 cells assessed as growth inhibition after 48 hrs by SRB assay; type: functional, cell-based; settings: A549, 48 h
SK-N-SH = assay: Cytotoxicity against human SK-N-SH cells assessed as growth inhibition after 48 hrs by SRB assay; type: functional, cell-based
MDA-MB-231 = assay: Cytotoxicity against human MDA-MB-231 cells assessed as growth inhibition after 48 hrs by SRB assay; type: functional, cell-based; settings: MDA-MB-231, 48 h
Calf thymus DNA [1] = assay: Binding affinity to calf thymus DNA assessed as compound-DNA complex formation by UV-Vis absorption spectroscopic analysis; type: nucleic-acid assay; settings: Bos taurus
Calf thymus DNA [2] = assay: Binding affinity to calf thymus DNA by fluorescence spectroscopic analysis; type: nucleic-acid assay; settings: Bos taurus

N#C/C(=C\c1cccc2ccccc12)Cn1cnnn1
IC50 (DU-145): 7.36 µM | IC50 (HepG2): 7.11 µM | IC50 (A549): 5.7 µM | IC50 (SK-N-SH): 16.9 µM | IC50 (MDA-MB-231): 31.4 µM

CCOC(=O)/C(=C/c1ccc(Cl)cc1)Cn1cnnn1
IC50 (DU-145): 8.44 µM | IC50 (HepG2): 3 µM | IC50 (A549): 3.18 µM | IC50 (SK-N-SH): 28.2 µM | IC50 (MDA-MB-231): 23.9 µM

N#C/C(=C\c1ccc(C(F)(F)F)cc1)Cn1cnnn1
IC50 (DU-145): 5.92 µM | IC50 (HepG2): 1.65 µM | IC50 (A549): 3.51 µM | IC50 (SK-N-SH): 11.8 µM | IC50 (MDA-MB-231): 8.7 µM

Cc1nnnn1C/C(C#N)=C/c1cccc2ccccc12
IC50 (DU-145): 5.76 µM | Kb (Calf thymus DNA [1]): 0.75 ×10⁵ /M | IC50 (HepG2): 2.6 µM | Activity (Calf thymus DNA [2]): Active | IC50 (A549): 2.95 µM | IC50 (SK-N-SH): 13.7 µM | IC50 (MDA-MB-231): 14.1 µM

COC(=O)Nc1nc2cc(C(=O)c3cccs3)ccc2[nH]1 [NOCODAZOLE]
IC50 (DU-145): < 0.1 µM | IC50 (HepG2): < 0.1 µM | IC50 (A549): < 0.1 µM | IC50 (SK-N-SH): < 0.1 µM | IC50 (MDA-MB-231): < 0.1 µM

COC(=O)/C(=C/c1ccccc1)Cn1cnnn1
IC50 (DU-145): 9.02 µM | IC50 (HepG2): 10.7 µM | IC50 (A549): 7.91 µM | IC50 (SK-N-SH): 31.6 µM | IC50 (MDA-MB-231): 16.4 µM

Cc1ccc(/C=C(\C#N)Cn2cnnn2)cc1
IC50 (DU-145): 7.3 µM | IC50 (HepG2): 6.56 µM | IC50 (A549): 7.95 µM | IC50 (SK-N-SH): 20.1 µM | IC50 (MDA-MB-231): 25.7 µM

N#C/C(=C\c1ccccc1)Cn1cnnn1
IC50 (DU-145): 9.45 µM | IC50 (HepG2): 5.83 µM | IC50 (A549): 9.99 µM | IC50 (SK-N-SH): 23.3 µM | IC50 (MDA-MB-231): 18.4 µM

COC(=O)/C(=C/c1ccc(OC)cc1)Cn1cnnn1
IC50 (DU-145): 5.6 µM | IC50 (HepG2): 6.65 µM | IC50 (A549): 3.83 µM | IC50 (SK-N-SH): 7.9 µM | IC50 (MDA-MB-231): 21 µM

COc1ccc(/C=C(\C#N)Cn2cnnn2)cc1
IC50 (DU-145): 19.4 µM | IC50 (HepG2): 27.4 µM | IC50 (A549): 23.8 µM | IC50 (SK-N-SH): 64.2 µM | IC50 (MDA-MB-231): 20.3 µM

COC(=O)/C(=C/c1ccc(F)cc1)Cn1cnnn1
IC50 (DU-145): 8.57 µM | IC50 (HepG2): 12.1 µM | IC50 (A549): 6.9 µM | IC50 (SK-N-SH): 18.3 µM | IC50 (MDA-MB-231): 15.9 µM

CCOC(=O)/C(=C/c1ccc(Br)cc1)Cn1cnnn1
IC50 (DU-145): 5.5 µM | IC50 (HepG2): 4.89 µM | IC50 (A549): 4.78 µM | IC50 (SK-N-SH): 27.3 µM | IC50 (MDA-MB-231): 18.9 µM

COC(=O)/C(=C/c1ccc(C)cc1)Cn1cnnn1
IC50 (DU-145): 8.42 µM | IC50 (HepG2): 10.7 µM | IC50 (A549): 16 µM | IC50 (SK-N-SH): 71.7 µM | IC50 (MDA-MB-231): 62.6 µM

COC(=O)/C(=C/c1ccc([N+](=O)[O-])cc1)Cn1cnnn1
IC50 (DU-145): 5.5 µM | IC50 (HepG2): 2.07 µM | IC50 (A549): 2.84 µM | IC50 (SK-N-SH): 22.3 µM | IC50 (MDA-MB-231): 9.14 µM

CCOC(=O)/C(=C/c1ccccc1Br)Cn1cnnn1
IC50 (DU-145): 7.79 µM | IC50 (HepG2): 3.33 µM | IC50 (A549): 5.94 µM | IC50 (SK-N-SH): 16.3 µM | IC50 (MDA-MB-231): 14.8 µM

COc1cc([C@@H]2c3cc4c(cc3[C@H](O)[C@H]3COC(=O)[C@H]23)OCO4)cc(OC)c1OC [PODOFILOX]
IC50 (DU-145): < 0.1 µM | IC50 (HepG2): < 0.1 µM | IC50 (A549): < 0.1 µM | IC50 (SK-N-SH): < 0.1 µM | IC50 (MDA-MB-231): < 0.1 µM

COC(=O)/C(=C/c1ccccc1[N+](=O)[O-])Cn1cnnn1
IC50 (DU-145): 10.2 µM | IC50 (HepG2): 4.33 µM | IC50 (A549): 6.88 µM | IC50 (SK-N-SH): 19.8 µM | IC50 (MDA-MB-231): 43.7 µM

Cc1nnnn1C/C(C#N)=C/c1ccc(F)cc1
IC50 (DU-145): 7.19 µM | IC50 (HepG2): 7.29 µM | IC50 (A549): 6.4 µM | IC50 (SK-N-SH): 20.2 µM | IC50 (MDA-MB-231): 28.8 µM
